Assay results taken from PubChem BioAssay (NCI).
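Cultured in 96-well plates, cells were exposed to test compound for 48 hours across five concentrations. TGI: concentration producing complete growth inhibition.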

Experiments:
Experiment in all cases: NCI tumour cell line growth inhibition, 48 h
SK-MEL-28 melanoma = test system: SK-MEL-28 melanoma
NCI/ADR-RES ovarian = test system: NCI/ADR-RES ovarian
IGROV1 ovarian = test system: IGROV1 ovarian
NCI-H226 lung = test system: NCI-H226 lung
NCI-H460 lung = test system: NCI-H460 lung
T-47D breast = test system: T-47D breast
A498 renal = test system: A498 renal
K-562 leukemia = test system: K-562 leukemia
SNB-75 CNS = test system: SNB-75 CNS
OVCAR-3 ovarian = test system: OVCAR-3 ovarian
MDA-MB-435 = test system: MDA-MB-435
A549 NSCLC = test system: A549 NSCLC
MOLT-4 leukemia = test system: MOLT-4 leukemia
LOX IMVI melanoma = test system: LOX IMVI melanoma
BT-549 breast = test system: BT-549 breast
CAKI-1 renal = test system: CAKI-1 renal
OVCAR-5 ovarian = test system: OVCAR-5 ovarian
OVCAR-4 ovarian = test system: OVCAR-4 ovarian
SK-OV-3 ovarian = test system: SK-OV-3 ovarian
UACC-62 melanoma = test system: UACC-62 melanoma
SF-295 CNS = test system: SF-295 CNS
KM12 colon = test system: KM12 colon
PC-3 prostate = test system: PC-3 prostate
UACC-257 melanoma = test system: UACC-257 melanoma
HCT-116 colon = test system: HCT-116 colon
SR leukemia = test system: SR leukemia
SK-MEL-2 melanoma = test system: SK-MEL-2 melanoma
RXF 393 renal = test system: RXF 393 renal
DU-145 prostate = test system: DU-145 prostate
HCT-15 colon = test system: HCT-15 colon
SK-MEL-5 melanoma = test system: SK-MEL-5 melanoma
HOP-92 NSCLC = test system: HOP-92 NSCLC
MALME-3M melanoma = test system: MALME-3M melanoma
786-0 renal = test system: 786-0 renal
SF-268 CNS = test system: SF-268 CNS
SW-620 colon = test system: SW-620 colon
EKVX NSCLC = test system: EKVX NSCLC
M14 melanoma = test system: M14 melanoma
NCI-H23 lung = test system: NCI-H23 lung
ACHN renal = test system: ACHN renal
TK-10 renal = test system: TK-10 renal
RPMI-8226 leukemia = test system: RPMI-8226 leukemia
U251 CNS = test system: U251 CNS
SN12C renal = test system: SN12C renal
OVCAR-8 ovarian = test system: OVCAR-8 ovarian
SNB-19 CNS = test system: SNB-19 CNS
MDA-N = test system: MDA-N
HT29 colon = test system: HT29 colon
HS 578T breast = test system: HS 578T breast
MDA-MB-231 breast = test system: MDA-MB-231 breast
NCI-H522 lung = test system: NCI-H522 lung
MCF7 breast = test system: MCF7 breast
SF-539 CNS = test system: SF-539 CNS
COLO 205 colon = test system: COLO 205 colon
HOP-62 NSCLC = test system: HOP-62 NSCLC
HCC-2998 colon = test system: HCC-2998 colon
UO-31 renal = test system: UO-31 renal
CCRF-CEM leukemia = test system: CCRF-CEM leukemia
HL-60(TB) leukemia = test system: HL-60(TB) leukemia

Measured: TGI

COc1ccc(C(O)c2ccccn2)cc1 (stereo unspecified)
> 100 µM: SK-MEL-28 melanoma | NCI/ADR-RES ovarian | IGROV1 ovarian | NCI-H226 lung | NCI-H460 lung | T-47D breast | A498 renal | K-562 leukemia | SNB-75 CNS | OVCAR-3 ovarian | MDA-MB-435 | A549 NSCLC | MOLT-4 leukemia | LOX IMVI melanoma | BT-549 breast | CAKI-1 renal | OVCAR-5 ovarian | OVCAR-4 ovarian | SK-OV-3 ovarian | UACC-62 melanoma | SF-295 CNS | KM12 colon | PC-3 prostate | UACC-257 melanoma | HCT-116 colon | SR leukemia | SK-MEL-2 melanoma | RXF 393 renal | DU-145 prostate | HCT-15 colon | SK-MEL-5 melanoma | HOP-92 NSCLC | MALME-3M melanoma | 786-0 renal | SF-268 CNS | SW-620 colon | EKVX NSCLC | M14 melanoma | NCI-H23 lung | ACHN renal | TK-10 renal | RPMI-8226 leukemia | U251 CNS | SN12C renal | OVCAR-8 ovarian | SNB-19 CNS | MDA-N | HT29 colon | HS 578T breast | MDA-MB-231 breast | NCI-H522 lung | MCF7 breast | SF-539 CNS | COLO 205 colon | HOP-62 NSCLC

CN(C)S(=O)(=O)c1nc(Cl)c2[nH]cnc2n1
> 100 µM: SK-MEL-28 melanoma | NCI/ADR-RES ovarian | IGROV1 ovarian | NCI-H226 lung | T-47D breast | A498 renal | K-562 leukemia | SNB-75 CNS | OVCAR-3 ovarian | MDA-MB-435 | A549 NSCLC | MOLT-4 leukemia | LOX IMVI melanoma | BT-549 breast | CAKI-1 renal | OVCAR-5 ovarian | OVCAR-4 ovarian | SK-OV-3 ovarian | UACC-62 melanoma | SF-295 CNS | KM12 colon | PC-3 prostate | UACC-257 melanoma | HCT-116 colon | SR leukemia | SK-MEL-2 melanoma | HCC-2998 colon | RXF 393 renal | DU-145 prostate | HCT-15 colon | UO-31 renal | SK-MEL-5 melanoma | MALME-3M melanoma | 786-0 renal | SF-268 CNS | SW-620 colon | EKVX NSCLC | M14 melanoma | NCI-H23 lung | ACHN renal | TK-10 renal | RPMI-8226 leukemia | U251 CNS | SN12C renal | OVCAR-8 ovarian | SNB-19 CNS | MDA-N | HT29 colon | HS 578T breast | MDA-MB-231 breast | NCI-H522 lung | CCRF-CEM leukemia | HL-60(TB) leukemia | MCF7 breast | COLO 205 colon | HOP-62 NSCLC
